Test results from patent US11814519B2, “Nitric oxide-releasing 3D-printing compositions and uses thereof” (Virginia Commonwealth University, priority 2020, dated 2023).

Legend:
[1] = Optical images of a thin printed layer of donor-loaded silicone rubber soaked in phosphate buffered saline-EDTA (dissolution of donor particles); format: physicochemical; conditions: thin printed layer soaked in PBSE
Experimental: FIG. 4A-C is optical images of a thin layer of S-nitroso-N-acetylpenicillamine-doped silicone rubber before soaking (A) and after 24 h (B) and 48 h (C) of soaking in phosphate buffered saline-EDTA.
FIG. 7A-C is bright-field optical images of a thin layer of S-nitrosoglutathione-loaded silicon rubber before and after soaking in phosphate buffered saline-EDTA.

[2] = Solubility of the NO donor in solvents and in the silicone ink; format: physicochemical; conditions: silicone ink ingredients
[3] = cited from earlier work

time required for dissolution of donor particles in the thin printed layer ([1]; optical images) [days] | solubility in the silicone rubber ink [2] | time for dissolution of donor particles in the thin printed layer ([1]; optical images (FIG. 7)) | Compound | solvents in which the donor is soluble [3] | water solubility relative to SNAP ([3]; water)
3 | not dissolved in the ink ingredients | – | CC(=O)N[C@H](C(=O)O)C(C)(C)SN=O (racemic) [SNAP, S-nitroso-N-acetylpenicillamine] | most soluble in organic solvents such as methanol and tetrahydrofuran | –
– | not soluble | dissolved within a day | N[C@@H](CCC(=O)N[C@@H](CSN=O)C(=O)NCC(=O)O)C(=O)O [GSNO, S-nitrosoglutathione] | only appreciably dissolved in water and DMSO | much higher
